Values of other authors in patent publication US7022677B1, “Amide derivatives as growth hormone secretagogues” (Kaken Pharmaceutical Co., Ltd., priority 1999, dated 2006).

Tests used:
growth hormone release = conditions: control compound for pharmacophore development
[1] = human, in vivo

Compound | growth hormone releasing activity (active/inactive) (growth hormone release) | oral bioavailability [1] [%]
CC(C)(N)CC(=O)N[C@H]1CCc2ccccc2N(Cc2ccc(-c3ccccc3-c3nn[nH]n3)cc2)C1=O [L-692,428] | inactive | –
GHRP-6 | – | 0.3
